The values below come from US6710080B2, “Substituted 2-dialkylaminoalkylbiphenyl derivatives” (Gruenenthal GmbH, priority 1999, dated 2004).

Where a name gives a salt, the structure may show the parent alone.

The experiment relates to phenylquinone-induced writhing in mice. In words: Writhing test in mice. In kind it is in vivo. Conditions: Mus musculus, male NMRI mice; for inhibition at 10 mg/kg: 10 mg/kg intravenously 10 minutes before phenylquinone i.p., writhing counted 5-20 minutes after phenylquinone, read-out: % Inhibition of the writhing reaction with 10 mg/kg intravenously; for ED50: iv, intravenously, regression analysis of dose-dependent decrease in writhing reactions. On the procedure:
The analgesic activity was investigated on phenylquinone-induced writhing in mice (modified by I. C. Hendershot, J. Forsaith, J. Pharmacol. Exp. Ther. 125, 237-240 (1959)). Male NMRI mice weighing 25-30 g were used for this. Groups of 10 animals per dose of substance received 0.3 ml/mouse of a 0.02% aqueous solution of phenylquinone (phenylbenzoquinone, Sigma, Deisenhofen; preparation of the solution with addition of 5% ethanol and storage in a water bath at 45° C.) as an intraperitoneal administration 10 minutes after intravenous administration of the test substances. The animals were placed individually in observation cages. The number of pain-induced extension movements (so-called writhing reactions=straightening of the body with stretching out of the hind extremities) 5-20 minutes after the administration of phenylquinone was counted by means of a push-button counter. Animals which receive only physiological saline solution were also run as a control. All the substances were tested in the standard dosage of 10 mg/kg. The percentage inhibition (% inhibition) of the writhing reaction by a substance was calculated in accordance with the following equation: [formula]
For some substances, the ED50 values with 95% confidence limits of the writhing reaction were calculated from the dose-dependent decrease in the writhing reactions compared with phenylquinone control groups investigated in parallel by means of regression analysis (evaluation program of Martens EDV Service, Eckental Germany).
Background: An intraperitoneal irritant provokes the stretching counted in writhing tests.

Consider `COc1cccc(-c2ccccc2CN(C)C)c1` [Example 1, (3′-Methoxybiphenyl-2-ylmethyl)dimethylamine hydrochloride], for which the inhibition at 10 mg/kg worked out at 53%. For `CN(C)Cc1ccccc1-c1ccc(Cl)cc1.Cl` [Example 2, (4′-Chlorobiphenyl-2-ylmethyl)dimethylamine hydrochloride], the 50% effect level (ED50) was put at a dose of 4.55 mg/kg and the inhibition at 10 mg/kg came to 89%. In the same order, the values of `CN(C)Cc1ccccc1-c1cccc(O)c1.Cl` [Example 3, 2′-Dimethylaminomethylbiphenyl-3-ol hydrochloride] are 0.24 mg/kg and 100%.

Consider `COc1ccccc1-c1ccccc1CN(C)C.Cl` [Example 4, (2′-Methoxybiphenyl-2-ylmethyl)dimethylamine hydrochloride], for which it took a dose of 3.95 mg/kg to reach the 50% effect level (ED50) and the inhibition at 10 mg/kg came out at 75%. For the compound `CN(C)Cc1ccccc1-c1cccc(Cl)c1.Cl` [Example 5, (3′-Chlorobiphenyl-2-ylmethyl)dimethylamine hydrochloride], it took a dose of 4.31 mg/kg to reach the 50% effect level (ED50) and the inhibition at 10 mg/kg is 68%. In the case of `CN(C)Cc1ccccc1-c1ccccc1F.Cl` [Example 6, (2′-Fluorobiphenyl-2-ylmethyl)dimethylamine hydrochloride], the ED50 (as a rule, the dose at which the effect has come halfway, by size or by number of responders) was determined as 4.26 mg/kg and the inhibition at 10 mg/kg is 88%. The like results for `CN(C)Cc1ccccc1-c1cccc(F)c1.Cl` [Example 7, (3′-Fluorobiphenyl-2-ylmethyl)dimethylamine hydrochloride] were, in that order, 2.55 mg/kg and 90%. In the same order, the values of `CN(C)Cc1ccccc1-c1ccc(F)cc1.Cl` [Example 8, (4′-Fluorobiphenyl-2-ylmethyl)dimethylamine hydrochloride] are 7.15 mg/kg and 67%. The like results for `CN(C)Cc1ccccc1-c1ccc(F)c(Cl)c1.Cl` [Example 9, (3′-Chloro-4′-fluorobiphenyl-2-ylmethyl)dimethylamine hydrochloride] were, in that order, 2.32 mg/kg and 89%.

In the case of `COc1cccc(-c2ccccc2CCN(C)C)c1.Cl` [Example 10, (3′-Methoxybiphenyl-2-ylethyl)dimethylamine hydrochloride], the ED50 was 1.7 mg/kg and the inhibition at 10 mg/kg came out at 100%. As to `Cc1cc2c(-c3ccccc3CN(C)C)cccc2o1` [Example 11, Dimethyl-[2-(2-methylbenzofuran-4-yl)benzyl]amine hydrochloride], the inhibition at 10 mg/kg was 74%. With `CN(C)Cc1ccccc1-c1ccccc1C=O.Cl` [Example 12, 2′-Dimethylaminomethylbiphenyl-2-carbaldehyde hydrochloride], the median effective dose (ED50) was 1.74 mg/kg and the inhibition at 10 mg/kg was 89%.

For the compound `CN(C)Cc1ccccc1-c1cccc(C(F)F)c1.Cl` [Example 13, (3′-Difluoromethylbiphenyl-2-ylmethyl)dimethylamine hydrochloride], the ED50 was found to be 5.3 mg/kg and the inhibition at 10 mg/kg is 81%. The like results for `CN(C)Cc1ccccc1-c1cccc(C=O)c1.Cl` [Example 14, 2′-Dimethylaminomethylbiphenyl-3-carbaldehyde hydrochloride] were, in that order, 2.28 mg/kg and 100%. In the case of `CN(C)Cc1ccccc1-c1ccccc1.Cl` [Example 15, biphenyl-2-ylmethyldimethylamine hydrochloride], the ED50 came out at 3.66 mg/kg and the inhibition at 10 mg/kg was 52%. The like results for `CN(C)Cc1ccccc1-c1ccc(Cl)c(Cl)c1.Cl` [Example 16, (3′,4′-Dichlorobiphenyl-2-ylmethyl)dimethylamine hydrochloride] were, in that order, 4.59 mg/kg and 89%. `CN(C)Cc1ccccc1-c1cc(Cl)cc(Cl)c1` [Example 17, (3′,5′-Dichlorobiphenyl-2-ylmethyl)dimethylamine hydrochloride]: the inhibition at 10 mg/kg worked out at 90%. The same measure, in the same setting: the result for `CN(C)Cc1ccccc1-c1ccc([N+](=O)[O-])c(C(F)(F)F)c1` [Example 18, Dimethyl-(4′-nitro-3′-trifluoromethylbiphenyl-2-ylmethyl)amine hydrochloride] reads 83%; that for `CN(C)Cc1ccccc1-c1ccc(F)c(F)c1` [Example 19, (3′,4′-Difluorobiphenyl-2-ylmethyl)dimethylamine hydrochloride], 86%. For the compound `CN(C)Cc1ccccc1-c1ccc(F)c(C(F)(F)F)c1.Cl` [Example 20, (4′-Fluoro-3′-trifluoromethylbiphenyl-2-ylmethyl)dimethyl-amine hydrochloride], the ED50 was 4.99 mg/kg and the inhibition at 10 mg/kg was found to be 83%. In the same order, the values of `COc1cc(-c2ccccc2CN(C)C)ccc1Cl.Cl` [Example 21, (4′-Chloro-3′-methoxybiphenyl-2-ylmethyl)dimethylamine hydrochloride] are 6.78 mg/kg and 53%. On to `CC(C)Oc1cccc(-c2ccccc2CN(C)C)c1` [Example 23, (3′-Isopropoxybiphenyl-2-ylmethyl)dimethylamine hydrochloride], for which the inhibition at 10 mg/kg turned out to be 97%.

With `CN(C)CCc1ccccc1-c1cccc(O)c1.Cl` [Example 24, 2′-(2-Dimethylaminoethyl)biphenyl-3-ol hydrochloride], it took a dose of 2.27 mg/kg to reach the 50% effect level (ED50) and the inhibition at 10 mg/kg is 99%.

As to `CN(C)Cc1ccccc1-c1ccc(Cl)c(O)c1` [Example 25, 4-Chloro-2′-dimethylaminomethylbiphenyl-3-ol hydrochloride], the inhibition at 10 mg/kg turned out to be 74%. Consider `CN(C)Cc1ccccc1-c1ccc2[nH]ccc2c1` [Example 26, [2-(1H-Indol-5-yl)benzyl]dimethylamine], for which the ED50 was found to be 0.75 mg/kg and the inhibition at 10 mg/kg was 100%. In the case of `CN(C)Cc1ccccc1-c1ccc(S(C)(=O)=O)cc1` [Example 27, (4′-Methanesulfonylbiphenyl-2-ylmethyl)dimethylamine hydrochloride], the inhibition at 10 mg/kg came to 89%. Still for that read-out and setting: then `CN(C)Cc1ccccc1-c1ccc(Cl)cc1Cl` [Example 28, (2′,4′-Dichlorobiphenyl-2-ylmethyl)dimethylamine hydrochloride], with 90%. Regarding `CN(C)Cc1ccccc1-c1cccc(F)c1F.Cl` [Example 29, (2′,3′-Difluorobiphenyl-2-ylmethyl)dimethylamine hydrochloride], the ED50 was determined as 5.71 mg/kg and the inhibition at 10 mg/kg is 83%. For the compound `CN(C)Cc1ccccc1-c1cc(F)ccc1F` [Example 30, (2′,5′-Difluorobiphenyl-2-ylmethyl)dimethylamine hydrochloride], the inhibition at 10 mg/kg came out at 89%. With `CN(C)Cc1ccccc1-c1ccc2c(c1)OCO2` [Example 31, (2-Benzo [1,3]dioxol-5-ylbenzyl)dimethylamine hydrochloride], the inhibition at 10 mg/kg turned out to be 94%.

Take `CC(=O)c1cccc(-c2ccccc2CCN(C)C)c1` [Example 32, 1-[2′-(2-Dimethylaminoethyl)biphenyl-3-yl]ethanone hydrochloride]: the inhibition at 10 mg/kg amounted to 98%.

Consider `COc1ccc(-c2ccccc2CCN(C)C)cc1OC` [Example 33, [2-(3′,4′-Dimethoxybiphenyl-2-yl)ethyl]dimethylamine hydrochloride], for which the inhibition at 10 mg/kg is 89%.

Turning to `CC(C)Oc1cccc(-c2ccccc2CCN(C)C)c1` [Example 34, [2-(3′-Isopropoxybiphenyl-2-yl)ethyl]dimethylamine hydrochloride], the inhibition at 10 mg/kg was 80%. For the compound `COc1cc(-c2ccccc2CCN(C)C)ccc1Cl` [Example 35, [2-(4′-Chloro-3′-methoxybiphenyl-2-yl)ethyl]dimethylamine hydrochloride], the inhibition at 10 mg/kg was 88%. On to `CN(C)CCc1ccccc1-c1ccc(Cl)c(O)c1` [Example 36, 4-Chloro-2′-(2-dimethylaminoethyl)biphenyl-3-ol hydrochloride], for which the inhibition at 10 mg/kg is 93%. Same read-out and setting: then `CN(C)Cc1ccccc1-c1cccc([N+](=O)[O-])c1` [Example 37, Dimethyl-(3′-nitrobiphenyl-2-ylmethyl)amine hydrochloride], with 60%. With `CN(C)Cc1ccccc1-c1ccc(N)c(O)c1` [Example 38, 4-Amino-2′-dimethylaminomethylbiphenyl-3-ol dihydrochloride], the inhibition at 10 mg/kg came out at 65%. For `CN(C)Cc1ccccc1-c1cc(F)cc(F)c1` [Example 39, (3′,5′-Difluorobiphenyl-2-ylmethyl)dimethylamine hydrochloride], the inhibition at 10 mg/kg turned out to be 80%. On the same count and under the same terms, the result for `COc1ccc(OC)c(-c2ccccc2CN(C)C)c1` [Example 40, (2′,5′-Dimethoxybiphenyl-2-ylmethyl)dimethylamine hydrochloride] reads 57%. The same measure, in the same setting: the result for `CN(C)Cc1ccccc1-c1cc(OC(F)(F)F)ccc1N` [Example 41, 2′-Dimethylaminomethyl-5-trifluoromethoxybiphenyl-2-ylamine dihydrochloride] reads 56%; that for `CC(=O)Nc1ccc(OC(F)(F)F)cc1-c1ccccc1CN(C)C` [Example 42, N-(2′-Dimethylaminomethyl-5-trifluoromethoxybiphenyl-2-yl)acetamide hydrochloride], 44%.
